Data on six compounds can be found in ChEMBL document CHEMBL1201861, “Genomics of Drug Sensitity in Cancer screening data, Wellcome Trust Sanger Institute”.

Usually IC50 stands for the midpoint of a concentration-inhibition curve.

Common to all, as to experiment: cells
The test system of one test is EW-16. The class given is functional, cell-based, Homo sapiens. The note with it: Homo sapiens, EW-16.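 Also: growth inhibition of human EW-16 cells, read out as cell viability.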
The subject of the next test is HEL. The class given is functional, cell-based, Homo sapiens. Particulars: Homo sapiens, HEL.
The test system of a further test is NCI-H1092. It is filed as functional, cell-based. Particulars: Homo sapiens.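 Also: cell growth inhibition measured with a cell viability assay.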
A further test deals with J-RT3-T3-5. It is filed as functional, cell-based. The note with it: Homo sapiens.
The subject of a further test is ES1. It is filed as functional, cell-based, Homo sapiens. Particulars: Homo sapiens, ES1.
Another test concerns IST-MEL1. It is filed as functional, cell-based, Homo sapiens. The note with it: Homo sapiens, IST-MEL1.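 Also: growth inhibition of the cell line, read out with a cell viability assay.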
In the next test the test system is JVM-2. It is filed as functional, cell-based. Particulars: Homo sapiens.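 Also: growth inhibition of JVM-2 cells determined by a cell viability assay.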
A further test relates to COLO-829. It is filed as functional, cell-based, Homo sapiens. Particulars: Homo sapiens, COLO-829.
Another test relates to BB65-RCC. It is filed as functional, cell-based, Homo sapiens. The note with it: Homo sapiens, BB65-RCC.
Another test has as its system A704. The class given is functional, cell-based, Homo sapiens. Particulars: Homo sapiens, A704.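 Also: growth inhibition of human A704 cells, read out with a cell viability assay.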
The next test deals with DU-4475. The class given is functional, cell-based. The note with it: Homo sapiens.
Another test concerns HT-144. It is filed as functional, cell-based, Homo sapiens. The note with it: Homo sapiens, HT-144.
For a further test, the system named is ONS-76. The class given is functional, cell-based, Homo sapiens. Particulars: Homo sapiens, ONS-76.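 Also: growth inhibition of human ONS-76 cells, read out with a cell viability assay.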
The subject of another test is UACC-257. It is filed as functional, cell-based, Homo sapiens. Particulars: Homo sapiens, UACC-257.
The subject of another test is LAN-6. It is filed as functional, cell-based, Homo sapiens. Particulars: Homo sapiens, LAN-6.
Another test relates to D-263MG. It is filed as functional, cell-based, Homo sapiens. The note with it: Homo sapiens, D-263MG.
The test system of the next test is SNU1. The class given is functional, cell-based. The note with it: Homo sapiens.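 Also: growth inhibition of human NCI-SNU-1 cells, measured with a cell viability assay.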
In another test the test system is RPMI-8866. It is filed as functional, cell-based. The note with it: Homo sapiens.
The test system of the next test is SNB-75. It is filed as functional, cell-based, Homo sapiens. Particulars: Homo sapiens, SNB-75.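 Also: cell viability assay measuring growth inhibition of human SNB-75 cells.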
The test system of another test is HL-60. The class given is functional, cell-based. The note with it: Homo sapiens.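 Also: growth inhibition of human HL-60 cells, read out with a cell viability assay.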
The test system of the next test is DSH1. It is filed as functional, cell-based, Homo sapiens. The note with it: Homo sapiens, DSH1.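 Also: growth inhibition of human DSH1 cells, measured with a cell viability readout.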
The next test concerns RH-1. The class given is functional, cell-based, Homo sapiens. The note with it: Homo sapiens, RH-1.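 Also: growth inhibition of human RH-1 cells, read out with a cell viability assay.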
The test system of the next test is CAS-1. The class given is functional, cell-based, Homo sapiens. The note with it: Homo sapiens, CAS-1.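 Also: growth inhibition of CAS-1 cells, measured with a cell viability assay.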
For a further test, the system named is D-392MG. It is filed as functional, cell-based, Homo sapiens. Particulars: Homo sapiens, D-392MG.
The subject of another test is NCI-H1650. The class given is functional, cell-based, Homo sapiens. Particulars: Homo sapiens, NCI-H1650.

Description for A704: SANGER: Inhibition of human A704 cell growth in a cell viability assay.
Description for BB65-RCC: SANGER: Inhibition of human BB65-RCC cell growth in a cell viability assay.
Description for COLO-829: SANGER: Inhibition of human COLO-829 cell growth in a cell viability assay.
Description for D-263MG: SANGER: Inhibition of human D-263MG cell growth in a cell viability assay.
Description for DSH1: SANGER: Inhibition of human DSH1 cell growth in a cell viability assay.
Description for DU-4475: SANGER: Inhibition of human DU-4475 cell growth in a cell viability assay.
Description for ES1: SANGER: Inhibition of human ES1 cell growth in a cell viability assay.
Description for EW-16: SANGER: Inhibition of human EW-16 cell growth in a cell viability assay.
Description for HEL: SANGER: Inhibition of human HEL cell growth in a cell viability assay.
Description for HL-60: SANGER: Inhibition of human HL-60 cell growth in a cell viability assay.
Description for HT-144: SANGER: Inhibition of human HT-144 cell growth in a cell viability assay.
Description for IST-MEL1: SANGER: Inhibition of human IST-MEL1 cell growth in a cell viability assay.
Description for J-RT3-T3-5: SANGER: Inhibition of human J-RT3-T3-5 cell growth in a cell viability assay.
Description for JVM-2: SANGER: Inhibition of human JVM-2 cell growth in a cell viability assay.
Description for LAN-6: SANGER: Inhibition of human LAN-6 cell growth in a cell viability assay.
Description for NCI-H1092: SANGER: Inhibition of human NCI-H1092 cell growth in a cell viability assay.
Description for NCI-H1650: SANGER: Inhibition of human NCI-H1650 cell growth in a cell viability assay.
Description for ONS-76: SANGER: Inhibition of human ONS-76 cell growth in a cell viability assay.
Description for RPMI-8866: SANGER: Inhibition of human RPMI-8866 cell growth in a cell viability assay.
Description for SNB-75: SANGER: Inhibition of human SNB75 cell growth in a cell viability assay.
Description for SNU1: SANGER: Inhibition of human NCI-SNU-1 cell growth in a cell viability assay.
Description for UACC-257: SANGER: Inhibition of human UACC-257 cell growth in a cell viability assay.

As to `CN1CCN(CCOc2cc(OC3CCOCC3)c3c(Nc4c(Cl)ccc5c4OCO5)ncnc3c2)CC1` [SARACATINIB], the half-maximal inhibitory concentration (IC50) in the test on EW-16 is 1.55 µM; in the test with HEL, above 2 µM; in the test on NCI-H1092 it was above 2 µM; in the test on J-RT3-T3-5 it was above 2 µM; with ES1, above 2 µM; in the test on IST-MEL1, above 2 µM. Also, the IC50 with JVM-2 is above 2 µM; in the test on COLO-829 it was above 2 µM; in the test on BB65-RCC, above 2 µM; with A704 it was 0.892 µM; in the test on DU-4475, above 2 µM; in the test on HT-144, above 2 µM. The IC50 in the test with ONS-76, in the test with UACC-257, in the test on LAN-6, with D-263MG, in the test on SNU1 and in the test with RPMI-8866 was above 2 µM each time. The 50% inhibitory concentration (IC50) in the test on SNB-75, in the test with HL-60, in the test with DSH1, in the test on RH-1 and in the test with CAS-1 was above 2 µM each time.

For `O=C(/C=C/c1ccccc1)NC(NC(=S)Nc1cccc2cccnc12)C(Cl)(Cl)Cl` (stereo not drawn) [SALUBRINAL], the IC50 with EW-16 is above 16 µM; in the test on HEL, 10.6 µM; in the test on NCI-H1092 it was above 16 µM; in the test on J-RT3-T3-5 it was 14.7 µM; in the test with ES1, above 16 µM; in the test with IST-MEL1 it was above 16 µM. Besides, the half-maximal inhibitory concentration (IC50) in the test on JVM-2, in the test on COLO-829, in the test with BB65-RCC, in the test on DU-4475, with HT-144 and in the test with ONS-76 was above 16 µM each time. For the same compound, the IC50 in the test on UACC-257, in the test with LAN-6, with D-392MG, with D-263MG, with SNU1 and in the test on RPMI-8866 was above 16 µM in each case. Moreover, the half-maximal inhibitory concentration (IC50) with SNB-75 is above 16 µM; with HL-60 it was 13.3 µM; with DSH1, above 16 µM; in the test on NCI-H1650 it was above 16 µM; with RH-1, above 16 µM; with CAS-1, above 16 µM.

For the compound `C=C1C(=O)O[C@@H]2C3O[C@]3(C)CC/C=C(\C)CC[C@@H]12` (stereo partly drawn), the half-maximal inhibitory concentration (IC50) is above 5 µM with EW-16; 3.18 µM in the test with HEL; above 5 µM in the test with NCI-H1092; above 5 µM in the test with J-RT3-T3-5; above 5 µM with ES1; above 5 µM in the test with IST-MEL1. The concentration for half-maximal inhibition (IC50) in the test on JVM-2, in the test on COLO-829, with BB65-RCC, in the test on DU-4475, with HT-144 and in the test with ONS-76 was above 5 µM throughout. The IC50 with UACC-257, in the test on LAN-6, with D-392MG, with D-263MG, in the test on SNU1 and with RPMI-8866 was above 5 µM each time. Further, the half-maximal inhibitory concentration (IC50) in the test with SNB-75, in the test with HL-60, with DSH1, in the test with NCI-H1650, with RH-1 and with CAS-1 was above 5 µM in each case.

`CO[C@H]1C[C@@H]2CC[C@@H](C)[C@@](O)(O2)C(=O)C(=O)N2CCCC[C@H]2C(=O)O[C@H]([C@H](C)C[C@@H]2CC[C@@H](O)[C@H](OC)C2)CC(=O)[C@H](C)/C=C(\C)[C@@H](O)[C@@H](OC)C(=O)[C@H](C)C[C@H](C)/C=C/C=C/C=C/1C` [SIROLIMUS]: the IC50 with EW-16 is 0.0269 µM; in the test on HEL, 0.0498 µM; in the test with NCI-H1092, above 0.1 µM; in the test with J-RT3-T3-5, 0.00646 µM; with ES1, above 0.1 µM; in the test on IST-MEL1, above 0.1 µM. The IC50 in the test with JVM-2, with COLO-829, in the test with BB65-RCC, with A704, with DU-4475 and in the test on HT-144 was above 0.1 µM each time. The IC50 with ONS-76, in the test with UACC-257, with LAN-6, in the test with D-263MG, with SNU1 and in the test on RPMI-8866 was above 0.1 µM each time. The half-maximal inhibitory concentration (IC50) with SNB-75, in the test on HL-60, in the test on DSH1, in the test with NCI-H1650, with RH-1 and with CAS-1 was above 0.1 µM throughout.

As to `CCC(=O)N1CCN(c2ccc(-n3c(=O)ccc4cnc5ccc(-c6cnc7ccccc7c6)cc5c43)cc2C(F)(F)F)CC1` [TORIN1], the concentration for half-maximal inhibition (IC50) in the test with EW-16 was 0.0119 µM; in the test with HEL it was 0.0164 µM; in the test on NCI-H1092, above 1.2 µM; in the test with J-RT3-T3-5 it was 0.0915 µM; in the test with ES1, 0.031 µM; with IST-MEL1, 0.0177 µM. Also, the concentration for half-maximal inhibition (IC50) with JVM-2 was above 1.2 µM; with COLO-829, 0.207 µM; in the test with BB65-RCC, 0.0369 µM; in the test with A704, 0.0974 µM; in the test on DU-4475, 0.0917 µM; in the test on HT-144, 0.0145 µM. For the same compound, the IC50 in the test on ONS-76 was 0.131 µM; in the test with UACC-257, 0.0983 µM; in the test on LAN-6, above 1.2 µM; in the test on D-263MG it was 0.661 µM; in the test on SNU1, above 1.2 µM; in the test with RPMI-8866 it was above 1.2 µM. Besides, the IC50 was 0.0634 µM with SNB-75; 0.149 µM in the test with HL-60; 0.0717 µM in the test with DSH1; above 1.2 µM in the test on NCI-H1650; 0.28 µM with RH-1; above 1.2 µM with CAS-1.

Turning to `Cc1cc(Nc2cc(N3CCN(C)CC3)nc(Sc3ccc(NC(=O)C4CC4)cc3)n2)n[nH]1` [TOZASERTIB], the IC50 is 0.238 µM in the test on EW-16; above 2 µM with HEL; above 2 µM in the test on NCI-H1092; above 2 µM in the test on J-RT3-T3-5; above 2 µM with ES1; above 2 µM with IST-MEL1. Besides, the 50% inhibitory concentration (IC50) in the test on JVM-2 was above 2 µM; in the test on COLO-829 it was above 2 µM; in the test on BB65-RCC it was 1.18 µM; in the test with A704 it was above 2 µM; in the test on DU-4475 it was 1.02 µM; in the test with HT-144, 0.638 µM. For the same compound, the IC50 was 0.665 µM in the test on ONS-76; above 2 µM in the test on UACC-257; above 2 µM in the test on LAN-6; above 2 µM in the test on D-263MG; above 2 µM with SNU1; above 2 µM in the test with RPMI-8866. Further, the concentration for half-maximal inhibition (IC50) with SNB-75 was above 2 µM; with HL-60, 1.07 µM; with DSH1, above 2 µM; in the test on NCI-H1650, above 2 µM; with RH-1 it was above 2 µM; in the test on CAS-1, above 2 µM.
